Experimental findings from patent US5338733A, “Isoxazolidinyl carbapenem derivative” (Shionogi Seiyaku Kabushiki Kaisha, priority 1992, dated 1994) are described below.

Series [1] concerns Staphylococcus aureus 209P. In words: MIC, Staphylococcus aureus 209P. In kind it is cell-based. The following applies: read-out: MIC (Minimal Inhibitory Concentration). The procedure:
(§1) The carbapenem compounds obtained in Examples 3, 5 and 8 were evaluated for antimicrobial activity, the integrated value of a concentration in blood (Area Under the Curve: AUC), recovery from urine and decomposition by human kidney dehydropeptidase-1 by using imipenem, meropenem and cephalosporin derivatives (A) and (B) as controls.
(§2) 1) MIC (Minimal Inhibitory Concentration) (γ/ml):
(§3) Antimicrobial activity was evaluated by using MIC.

The nature of series [2]: in vivo. The following applies: monkey, iv.
Series [3] has as its system Entercoccus SR1004. In words: MIC, Entercoccus SR1004. The class given is cell-based. The note with it: read-out: MIC (Minimal Inhibitory Concentration). As to the method: as §1, §2, §3
The test system of series [4] is human kidney dehydropeptidase-1. The series is described as follows: in vitro. The class given is in vitro ADME. As to the method: as §1
A short description of series [5]: in vitro. The following applies: human, kidney dehydropeptidase-1. In kind it is in vitro ADME, human. As to the method: as §1
Series [6] concerns Gram-positive bacteria and Gram-negative bacteria. The series is described as follows: Antimicrobial activity against Gram-positive and Gram-negative bacteria (overall). The note with it: as compared with imipenem, meropenem and cephalosporin derivatives (A) and (B); in words. The class given is cell-based. The procedure: as §1, §2, §3
For series [7], the system named is Pseudomonas aeruginosa SR1012. The series is described as follows: MIC, Pseudomonas aeruginosa SR1012. In kind it is cell-based. The procedure:
as §1, §2, §3

The nature of series [8]: in vivo. The note with it: mouse, iv. The procedure:
as §1
2) Concentration in Blood (γ/ml):
Each compound was intravenously injected into a mouse, and the concentration in the blood 15 minutes after the injection was measured.
3) Recovery from Urine (%):
Each compound was intravenously injected into a mouse and a monkey, and the content in the urine 24 hours after the injection was measured. A rate of recovery was obtained from the content.

The mark [9] stands for this setting: Pseudomonas aeruginosa SR1012, read-out: MIC (Minimal Inhibitory Concentration).

In brackets after ≈: the same amount, converted by molar mass. Counter-ions that a name gives are not always drawn. Like-named read-outs stand apart in the source and are kept apart here.

For the compound `CN1CCC(C2=C(C(=O)O)N3C(=O)C(NC(=O)C(=NO)c4csc(N)n4)C3SC2)O1` (stereo not drawn) [Cephalosporin (A)], the MIC in series [1] (Staphylococcus aureus 209P) came out at 0.78 µg/mL (≈ 1.72 µM).
The same measure, in the same setting: in the case of `C[N+]1(C)CCC(C2=C(C(=O)[O-])N3C(=O)C(NC(=O)C(=NO)c4csc(N)n4)C3SC2)O1` (stereo not drawn) [Cephalosporin (B)] it was 0.2 µg/mL (≈ 0.427 µM).
On to `C[C@H]1C([C@H]2CC[N+](C)(C)O2)=C(C(=O)[O-])N2C(=O)[C@H]([C@@H](C)O)C12` (stereo partly drawn) [Example 3, (1S,6S)-6-((R)-1-hydroxyethyl)-2-((5R)-2,2-dimethylisoxazolidinio-5-yl)-1-methyl-1-carba-2-penem-3-carboxylate], for which the MIC stood at 0.0125 µg/mL (≈ 0.0403 µM) in series [1] (Staphylococcus aureus 209P), 0.78 µg/mL (≈ 2.51 µM) in series [3] (Entercoccus SR1004) and 0.78 µg/mL (≈ 2.51 µM) in series [7] (setting [9]). Besides, the AUC (commonly concentration integrated over time) in series [2] is 35200 ng·h/mL; in series [8] it was 19000 ng·h/mL. In addition, in series [4], the “hydrolysis rate in the body” value is “low hydrolysis rate”. In series [5], this compound yielded a metabolised of 97%. Further, the “antimicrobial activity against Gram-positive bacteria and Gram-negative bacteria” value (“antimicrobial activity” below) in series [6] was “excellent antimicrobial activity”. Besides, the concentration at 0.25 h in series [8] is 36300 ng/mL.
On to `C[C@H]1C([C@@H]2CC[N+](C)(C)O2)=C(C(=O)[O-])N2C(=O)[C@H]([C@@H](C)O)C12` (stereo partly drawn) [Example 5, (1S,6S)-6-((R)-1-hydroxyethyl)-2-((5S)-2,2-dimethylisoxazolidinio-5-yl)-1-methyl-1-carba-2-penem-3-carboxylate], for which the values for the MIC in series [1] (Staphylococcus aureus 209P), in series [3] (Entercoccus SR1004) and in series [7] (setting [9]) were 0.0125 µg/mL (≈ 0.0403 µM), 0.78 µg/mL (≈ 2.51 µM) and 1.56 µg/mL (≈ 5.03 µM), respectively. Moreover, the “hydrolysis rate in the body” value in series [4] is recorded as “low hydrolysis rate”. In addition, the “antimicrobial activity” value in series [6] is “excellent antimicrobial activity”.
For `C[C@H]1C([C@@H]2CCN(C)O2)=C(C(=O)O)N2C(=O)[C@H]([C@@H](C)O)C12` (stereo partly drawn) [Example 8, sodium (1S,6S)-6-((R)-l-hydroxyethyl)-1-methyl-2-((5S)-2-methylisoxazolidine-5-yl)-1-carba-2-penem-3-carboxylate salt], the MIC in series [1] (Staphylococcus aureus 209P) was 0.1 µg/mL. Also, the “hydrolysis rate in the body” value in series [4] is “low hydrolysis rate”. Moreover, the “antimicrobial activity” value in series [6] is “excellent antimicrobial activity”.
Consider `C[C@@H](O)[C@H]1C(=O)N2C(C(=O)O)=C(SCCN=CN)C[C@H]12` [Imipenen, imipenem], for which the MIC in series [1] (Staphylococcus aureus, 209P) turned out to be 0.0125 µg/mL (≈ 0.0418 µM); in series [3], 1.56 µg/mL (≈ 5.21 µM); in series [7] (Pseudomonas aeruginosa, SR1012, read-out: MIC (Minimal Inhibitory Concentration)) it was 1.56 µg/mL (≈ 5.21 µM). In addition, the results for the AUC in series [2] and in series [8] were 13300 ng·h/mL and 8800 ng·h/mL, respectively. This compound also displayed a metabolised in series [5] of 73%. For the same compound, the concentration at 0.25 h in series [8] came out at 20600 ng/mL.
Turning to `C[C@@H](O)[C@H]1C(=O)N2C(C(=O)O)=C(S[C@@H]3CN[C@H](C(=O)N(C)C)C3)[C@H](C)[C@H]12` [Meropenen, meropenem], the MIC in series [1] (Staphylococcus aureus 209P) amounted to 0.1 µg/mL (≈ 0.261 µM); in series [3] (Entercoccus SR1004), 6.25 µg/mL (≈ 16.3 µM); in series [7] (setting [9]) it was 0.78 µg/mL (≈ 2.03 µM). In addition, the area under the curve (AUC) in series [2] amounted to 17200 ng·h/mL; in series [8], 5200 ng·h/mL. Also, in series [5], the metabolised was found to be 87%. In series [8], this compound yielded a concentration at 0.25 h of 13700 ng/mL.
